The numbers were not newly measured in patent US20060067952A1, “Low oil emulsion compositions for delivering taxoids and other insoluble drugs” (SD Pharmaceuticals, Inc., priority 2004, published 2006), which cites them from elsewhere.

Where two headings read alike, the source gives them in different places.

The conditions of the series: 25° C.

For the compound `CC(=O)Oc1ccccc1C(=O)O` [aspirin], the “Volume of solvent required to dissolve 1 gram of the drug” value is, setting by setting: (H2O) 300 mL; (ethanol) 5 mL.
